Experimental data reported in US20130184222A1, “[…] ACTIVE COMPOSITIONS AND THEIR METHODS OF USE” (AGIOS PHARMACEUTICALS, INC, priority 2010, published 2013).

Assays:
HT1080 cells = assay: Cellular assay: inhibition of 2-HG production in HT1080 cells (LC-MS, 48 hours); assay type: cell-based; details: Homo sapiens, HT-1080, 2-HG in media by LC-MS
Procedure: (§1) Cells (HT1080 or U87MG) were grown in T125 flasks in DMEM containing 10% FBS, 1× penicillin/streptomycin and 500 ug/mL G418 (present in U87MG cells only). They were harvested by trypsin and seeded into 96 well white bottom plates at a density of 5000 cell/well in 100 ul/well in DMEM with 10% FBS. No cells were placed in columns 1 and 12. Cells were incubated overnight at 37° C. in 5% CO2. The next day test compounds were made up at 2× the final concentration and 100 ul were added to each cell well. The final concentration of DMSO was 0.2% and the DMSO control wells were plated in row G. The plates were then placed in the incubator for 48 hours. At 48 hours, 100 ul of media was removed from each well and analyzed by LC-MS for 2-HG concentrations. The cell plate was placed back in the incubator for another 24 hours. At 72 hours post compound addition, 10 mL/plate of Promega Cell Titer Glo reagent was thawed and mixed. The cell plate was removed from the incubator and allowed to equilibrate to room temperature. Then 100 ul of Promega Cell Titer Glo reagent was added to each well of media. The cell plate was then placed on an orbital shaker for 10 minutes and then allowed to sit at room temperature for 20 minutes. The plate was then read for luminescence with an integration time of 500 ms.

U87MG cells = assay: Cellular assay: inhibition of 2-HG production in U87MG cells (LC-MS, 48 hours); assay type: cell-based; details: Homo sapiens, U-87 MG, 2-HG in media by LC-MS
Procedure: as §1

IDH1 R132H = IDH1 R132H (Homo sapiens, UniProt O75874, R132H); assay: In vitro assay for IDH1 R132H inhibitors (NADPH/aKG, resazurin detection); assay type: biochemical; details: Table 4B; 0.2 μg/ml IDH1 R132H, 50 minutes at room temperature; read-out: IC50, IDH1 R132H Inhibition
Method in brief: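 Reaction ran 50 min at room temperature in Tris pH 7.5 buffer with 150 mM NaCl, 10 mM MgCl2 and 0.03% BSA. Mix concentrations were 0.2 μg/ml mutant enzyme, 8 uM NADPH and 2 mM aKG. Detection added 30 μM resazurin, with resorufin fluorescence (Ex544/Em590) measured 5 min later.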

IDH1 R132H, sequence (O75874 whole entry R132H): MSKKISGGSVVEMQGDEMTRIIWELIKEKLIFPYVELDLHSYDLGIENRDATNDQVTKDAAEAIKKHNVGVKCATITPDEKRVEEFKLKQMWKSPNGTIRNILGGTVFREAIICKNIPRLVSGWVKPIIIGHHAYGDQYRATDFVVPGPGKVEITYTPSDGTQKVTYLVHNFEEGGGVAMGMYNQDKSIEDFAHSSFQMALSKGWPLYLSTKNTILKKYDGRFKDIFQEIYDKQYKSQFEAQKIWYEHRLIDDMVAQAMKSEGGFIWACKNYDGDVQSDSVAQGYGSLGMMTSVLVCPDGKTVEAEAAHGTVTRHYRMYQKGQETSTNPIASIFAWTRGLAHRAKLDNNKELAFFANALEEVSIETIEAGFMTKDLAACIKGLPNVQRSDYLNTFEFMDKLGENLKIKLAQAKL

SMILES	IC50 (HT1080 cells) [µM]	IC50 (U87MG cells) [µM]	IC50 (IDH1 R132H) [µM]
Cc1ccccc1C(C(=O)NC1CCCCC1)N(C(=O)CNCCc1ccccn1)c1cccc(F)c1 (stereo not drawn) [Compound 192]	1 to 5	1 to 5	0.1 to 1
Cc1ccccc1C(C(=O)NC1CCCCC1)N(C(=O)COc1ccncc1)c1cccc(F)c1 (stereo not drawn) [Compound 199]	1 to 5	1 to 5	0.1 to 1
Cc1ccccc1C(C(=O)NC1CCCOC1)N(C(=O)Cc1cccs1)c1cccc(F)c1 (stereo not drawn) [Compound 200]	1 to 5	1 to 5	0.1 to 1
Cc1ccccc1C(C(=O)NC1CCCCC1)N(C(=O)CNc1ccc(F)cc1)c1cccc(F)c1 (stereo not drawn) [Compound 201]	1 to 5	1 to 5	≤ 0.1
Cc1ccccc1C(C(=O)NC1CCCCC1)N(Cc1cccs1)C(=O)Cn1ccnc1 (stereo not drawn) [Compound 204, N-cyclohexyl-2-[(2-imidazol-1-yl-acetyl)-thiophen-2-ylmethyl-amino]-2-o-tolyl-acetamide]	1 to 5	0.25 to 1	0.1 to 1
Cc1ccccc1C(C(=O)NC1CCCCC1)N(Cc1nccs1)C(=O)Cn1nnc2ccccc21 (stereo not drawn) [Compound 205]	1 to 5	1 to 5	0.1 to 1
Cc1ccccc1C(C(=O)NC1CCCCC1)N(Cc1cccs1)C(=O)CN1Cc2cccnc2C1 (stereo not drawn) [Compound 206]	1 to 5	1 to 5	0.1 to 1
COC(=O)N1CCN(CC(=O)N(Cc2cccs2)C(C(=O)NC2CCCCC2)c2ccccc2C)CC1 (stereo not drawn) [Compound 208]	1 to 5	1 to 5	0.1 to 1
COc1ccc(NCC(=O)N(c2cccc(F)c2)C(C(=O)NC2CCCCC2)c2ccccc2C)cc1 (stereo not drawn) [Compound 210]	1 to 5	1 to 5	≤ 0.1
Cc1ccccc1C(C(=O)NCC1CCCCC1)N(C(=O)Cc1cccs1)c1cccc(F)c1 (stereo not drawn) [Compound 211]	1 to 5	1 to 5	0.1 to 1

The next lines start with the values.

IC50 (HT1080 cells) [µM]	IC50 (U87MG cells) [µM]	IC50 (IDH1 R132H) [µM]	SMILES
0.25 to 1	0.25 to 1	0.1 to 1	Cc1ccccc1C(C(=O)NC1CCCCC1)N(C(=O)CNCCc1ccncc1)c1cccc(F)c1 (stereo not drawn) [Compound 184]
≤ 0.25	0.25 to 1	≤ 0.1	COC(=O)N1CCN(CC(=O)N(c2cccc(F)c2)C(C(=O)NC2CCCCC2)c2ccccc2C)CC1 (stereo not drawn) [Compound 185]
1 to 5	1 to 5	0.1 to 1	Cc1ccccc1C(C(=O)NC1CCN(C(=O)OC(C)(C)C)C1)N(C(=O)Cc1cccs1)c1cccc(F)c1 (stereo not drawn) [Compound 190]
1 to 5	1 to 5	0.1 to 1	Cc1ccccc1C(C(=O)NC1CCCCC1)N(C(=O)CN[C@H]1CCOC1)c1cccc(F)c1 (stereo partly drawn) [Compound 191]
0.25 to 1	1 to 5	0.1 to 1	Cc1ccccc1C(C(=O)NC1CCCCC1)N(C(=O)CNCCc1cccnc1)c1cccc(F)c1 (stereo not drawn) [Compound 193]
0.25 to 1	1 to 5	0.1 to 1	Cc1ccccc1C(C(=O)NC1CCOCC1)N(C(=O)CN1CCc2ccccc21)c1cccc(F)c1 (stereo not drawn) [Compound 195]
0.25 to 1	0.25 to 1	≤ 0.1	Cc1ccccc1C(C(=O)NC1CCCCC1)N(C(=O)COc1cccnc1)c1cccc(F)c1 (stereo not drawn) [Compound 197]
≤ 0.25	0.25 to 1	≤ 0.1	Cc1ccccc1C(C(=O)NC1CCCCC1)N(C(=O)COc1ccccn1)c1cccc(F)c1 (stereo not drawn) [Compound 198]
≤ 0.25	0.25 to 1	≤ 0.1	Cc1ccccc1C(C(=O)NC1CCCCC1)N(C(=O)CN1CCOc2ccccc21)c1cccc(F)c1 (stereo not drawn) [Compound 202]
≤ 0.25	≤ 0.25	≤ 0.1	Cc1ccccc1C(C(=O)NC1CCCCC1)N(C(=O)Cc1c[nH]c2ncccc12)c1cccc(F)c1 (stereo not drawn) [Compound 203]
≤ 0.25	0.25 to 1	0.1 to 1	Cc1ccccc1C(C(=O)NC1CCCCC1)N(C(=O)CN1Cc2cccnc2C1)c1cccc(F)c1 (stereo not drawn) [Compound 209]
